{"source": "paper PMC7501227", "about": "“Flatfishes colonised freshwater environments by acquisition of various DHA biosynthetic pathways” (Communications Biology, 2020)", "key": {"[1]": {"target": "T1, Elovl5 (G. melas) (Gymnachirus melas, UniProt A0A7G1GDB9)", "T1 construct": "full ORF in pYES2, expressed in S. cerevisiae INVSc1", "T1 sequence (A0A7G1GDB9 1-294)": "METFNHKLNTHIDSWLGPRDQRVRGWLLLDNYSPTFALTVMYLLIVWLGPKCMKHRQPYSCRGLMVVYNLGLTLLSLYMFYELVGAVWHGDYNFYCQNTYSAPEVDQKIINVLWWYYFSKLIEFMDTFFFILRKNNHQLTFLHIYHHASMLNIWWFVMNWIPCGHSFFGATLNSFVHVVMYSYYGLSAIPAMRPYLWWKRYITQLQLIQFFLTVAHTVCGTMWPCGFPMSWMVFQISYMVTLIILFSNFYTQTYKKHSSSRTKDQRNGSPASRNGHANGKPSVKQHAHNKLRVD", "assay": "yeast expression, GC of FAMEs, % conversion", "assay_type": "cell-based", "settings": "elongation of C18 substrate; yeast culture 48 h, 30 °C"}, "[2]": {"target": "T2, Elovl5 (T. maculatus) (Trinectes maculatus, UniProt A0A7G1GDF5)", "T2 construct": "full ORF in pYES2, expressed in S. cerevisiae INVSc1", "T2 sequence (A0A7G1GDF5 1-294)": "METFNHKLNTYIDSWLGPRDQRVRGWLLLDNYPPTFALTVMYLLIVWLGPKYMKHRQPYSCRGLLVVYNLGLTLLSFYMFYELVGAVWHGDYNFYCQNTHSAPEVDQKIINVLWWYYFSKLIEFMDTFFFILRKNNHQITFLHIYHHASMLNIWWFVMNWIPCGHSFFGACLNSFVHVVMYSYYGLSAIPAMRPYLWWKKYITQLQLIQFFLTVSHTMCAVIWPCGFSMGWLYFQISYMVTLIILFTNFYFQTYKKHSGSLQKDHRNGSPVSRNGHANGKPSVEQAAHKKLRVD", "assay": "yeast expression, GC of FAMEs, % conversion", "assay_type": "cell-based", "settings": "elongation of C18 substrate; yeast culture 48 h, 30 °C"}, "[3]": {"target": "T3, Elovl5 (H. mentalis) (Hypoclinemus mentalis, UniProt A0A7G1GDF4)", "T3 construct": "full ORF in pYES2, expressed in S. cerevisiae INVSc1", "T3 sequence (A0A7G1GDF4 1-294)": "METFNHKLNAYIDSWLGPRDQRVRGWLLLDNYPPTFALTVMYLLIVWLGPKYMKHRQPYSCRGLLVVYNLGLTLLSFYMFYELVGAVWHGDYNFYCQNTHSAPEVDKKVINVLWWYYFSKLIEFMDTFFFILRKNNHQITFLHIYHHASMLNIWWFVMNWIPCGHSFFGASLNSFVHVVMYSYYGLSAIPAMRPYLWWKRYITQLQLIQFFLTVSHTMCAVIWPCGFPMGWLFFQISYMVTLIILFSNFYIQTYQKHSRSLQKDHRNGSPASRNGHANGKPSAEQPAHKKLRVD", "assay": "yeast expression, GC of FAMEs, % conversion", "assay_type": "cell-based", "settings": "elongation of C18 substrate; yeast culture 48 h, 30 °C"}, "[4]": {"target": "T4, Fads2 (A. finis) (Apionichthys finis, UniProt A0A7G1GDB3)", "T4 sequence (A0A7G1GDB3 entry or part of it)": "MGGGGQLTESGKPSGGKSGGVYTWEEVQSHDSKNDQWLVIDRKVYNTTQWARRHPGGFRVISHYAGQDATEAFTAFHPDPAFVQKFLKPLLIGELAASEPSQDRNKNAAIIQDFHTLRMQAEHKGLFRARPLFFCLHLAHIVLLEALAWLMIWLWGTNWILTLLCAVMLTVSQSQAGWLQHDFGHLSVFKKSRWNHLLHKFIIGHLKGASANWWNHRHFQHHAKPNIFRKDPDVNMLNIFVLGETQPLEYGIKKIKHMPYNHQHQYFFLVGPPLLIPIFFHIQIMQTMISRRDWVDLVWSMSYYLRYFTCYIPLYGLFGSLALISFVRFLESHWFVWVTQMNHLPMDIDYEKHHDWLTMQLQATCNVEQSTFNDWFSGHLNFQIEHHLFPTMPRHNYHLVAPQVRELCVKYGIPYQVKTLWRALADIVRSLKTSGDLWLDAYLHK", "assay": "yeast co-expression with zebrafish Elovl2, GC of FAMEs", "assay_type": "cell-based", "parameters": "full ORF in pYES2, expressed in S. cerevisiae INVSc1", "settings": "Δ6 desaturation; 24:5n-3 formed in the yeast from 22:5n-3 by zebrafish Elovl2; normalised to 18:3n-3"}, "[5]": {"target": "T5, Fads2a (H. mentalis) (Hypoclinemus mentalis, UniProt A0A7G1GDA4)", "T5 construct": "full ORF in pYES2, 442 residues, expressed in S. cerevisiae INVSc1", "T5 sequence (A0A7G1GDA4 entry or part of it)": "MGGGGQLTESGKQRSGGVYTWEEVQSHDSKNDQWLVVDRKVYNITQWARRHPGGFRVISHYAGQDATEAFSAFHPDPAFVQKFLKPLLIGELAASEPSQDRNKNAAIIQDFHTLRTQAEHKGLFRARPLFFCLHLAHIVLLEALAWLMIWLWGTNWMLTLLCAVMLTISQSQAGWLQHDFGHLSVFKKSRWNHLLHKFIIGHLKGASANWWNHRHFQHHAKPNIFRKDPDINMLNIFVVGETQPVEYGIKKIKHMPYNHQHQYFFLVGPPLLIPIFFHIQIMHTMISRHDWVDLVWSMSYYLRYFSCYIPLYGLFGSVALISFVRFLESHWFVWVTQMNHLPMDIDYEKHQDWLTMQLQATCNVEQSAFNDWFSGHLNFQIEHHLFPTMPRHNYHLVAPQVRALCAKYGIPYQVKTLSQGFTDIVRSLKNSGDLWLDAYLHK", "assay": "yeast expression, GC of FAMEs, % conversion", "assay_type": "cell-based", "settings": "Δ6 desaturation; yeast culture 48 h, 30 °C"}, "[6]": {"target": "T4, Fads2 (A. finis)", "settings": "Δ6 desaturation; yeast culture 48 h, 30 °C"}}, "data": [{"smiles": "CC/C=C\\C/C=C\\C/C=C\\C/C=C\\CCCCC(=O)O", "note": "[18:4n − 3]", "values": [{"measurement": "yeast expression, GC of FAMEs, % conversion", "setting": "[1]", "result": "The G. melas Elovl5 exhibited activity towards C18 to C22 substrates"}, {"measurement": "yeast expression, GC of FAMEs, % conversion", "setting": "[2]", "result": "The Elovl5 showed elongase activities towards C18 to C22 substrates"}, {"measurement": "yeast expression, GC of FAMEs, % conversion", "setting": "[3]", "result": "The Elovl5 performed elongations of C18 to C22 substrates"}]}, {"smiles": "CC/C=C\\C/C=C\\C/C=C\\C/C=C\\C/C=C\\CCCCCCCC(=O)O", "note": "[24:5n − 3]", "values": [{"measurement": "yeast co-expression with zebrafish Elovl2, GC of FAMEs", "setting": "[4]", "result": "desaturation at the highest efficiency among the four species"}]}, {"smiles": "CC/C=C\\C/C=C\\C/C=C\\CCCCCCCC(=O)O", "note": "[α-linolenic acid]", "values": [{"measurement": "yeast expression, GC of FAMEs, % conversion", "setting": "[5]", "result": "The two Fads2, namely Fads2a and Fads2b, showed distinct activities"}, {"measurement": "yeast expression, GC of FAMEs, % conversion", "setting": "[6]", "result": "The Fads2 isolated from A. finis showed"}]}]}
